In ChEMBL document CHEMBL2163299, “Cytotoxic effects of combination of oxidosqualene cyclase inhibitors with atorvastatin in human cancer cells” (J Med Chem, 2012):
pIC50: −log10 of the molar value. Activity calls are given as the source filed them. The rule behind the calls is not given here.

Key:
[1] = Chemical stability of compound at pH 4.0 after 24 hrs; type: physicochemical; settings: buffer, pH 4, 24 h
[2] = Chemical stability of compound at pH 7.4 after 24 hrs; type: physicochemical; settings: buffer, pH 7.4, 24 h
A549 = assay: Cytotoxicity against human A549 cells after 72 hrs by MTT assay; type: functional, cell-based; settings: A549, 72 h
KB = assay: Cytotoxicity against human KB cells after 72 hrs by MTT assay; type: functional, cell-based
LNCaP = assay: Cytotoxicity against human LNCAP cells after 72 hrs by MTT assay; type: functional, cell-based
[3] = Cytotoxicity against human LNZ308 cells after 72 hrs by MTT assay; type: functional, cell-based; settings: LNZ308, 72 h
[4] = Cytotoxicity against human Me300 cells after 72 hrs by MTT assay; type: functional, cell-based; settings: Me300, 72 h
OVCAR = assay: Cytotoxicity against human OVCAR cells after 72 hrs by MTT assay; type: functional, cell-based
LN-18 [5] = assay: Inhibition of DNA synthesis in human LN18 cells assessed as inhibition of tritiated thymidine incorporation at 1 to 3 uM after 24 hrs by beta counting; type: functional, cell-based
LN-229 [6] = assay: Inhibition of DNA synthesis in human LN229 cells assessed as inhibition of tritiated thymidine incorporation at 1 to 3 uM after 24 hrs by beta counting; type: functional, cell-based
[7] = (§1) Cytotoxicity against human LN18 cells assessed as reduction in cell survival after 72 hrs by MTT assay; type: functional, cell-based; settings: LN-18, 72 h
LN-18 [8] = assay: as §1; type: functional, cell-based
[9] = (§2) Cytotoxicity against human LN229 cells assessed as reduction in cell survival after 72 hrs by MTT assay; type: functional, cell-based; settings: LN-229, 72 h
LN-229 [10] = assay: as §2; type: functional, cell-based
LN-18 [11] = assay: Cytotoxicity against human LN18 cells at 2 to 4 uM after 72 hrs by MTT assay in presence of atorvastatin; type: functional, cell-based
[12] = Cytotoxicity against human HCEC cells assessed as cell death at 4 to 10 uM after 72 hrs by MTT assay in presence of atorvastatin; type: cell-based
LN-229 [13] = assay: Cytotoxicity against human LN229 cells at 2 uM after 72 hrs by MTT assay in presence of atorvastatin; type: functional, cell-based
LN-229 [14] = assay: Induction of [14C]acetate incorporation in human LN229 cells at 2 uM after 24 hrs by Beta-counting in presence of 2.5 to 10 uM atorvastatin; type: functional, cell-based
LN-18 [15] = assay: Induction of [14C]acetate incorporation in human LN18 cells at 2 uM after 24 hrs by Beta-counting in presence of 2.5 to 10 uM atorvastatin; type: functional, cell-based
LN-229 [16] = assay: Induction of [14C]acetate incorporation in human LN229 cells at 2 uM after 24 hrs by Beta-counting; type: functional, cell-based
LN-18 [17] = assay: Induction of [14C]acetate incorporation in human LN18 cells at 2 uM after 24 hrs by Beta-counting; type: functional, cell-based
[18] = pampa, pH 6.5
Description: Permeability of compound at pH 6.5 assessed as compound binding to lipid membrane by PAMPA

Caco-2 = assay: cells; settings: Homo sapiens, Caco-2, 72 h
Description: Cytotoxicity against human Caco2 cells after 72 hrs by MTT assay

HeLa = assay: cells; settings: Homo sapiens, 72 h
Description: Cytotoxicity against human HeLa cells after 72 hrs by MTT assay

MCF7 = assay: cells; settings: Homo sapiens, MCF7, 72 h
Description: Cytotoxicity against human MCF7 cells after 72 hrs by MTT assay

cells = settings: Homo sapiens, HCEC, 72 h
Description: Cytotoxicity against human HCEC cells assessed as reduction in cell survival after 72 hrs by MTT assay

physchem = settings: 1-octanol/TAPSO buffer, pH 7.4
Description: 1-Octanol-TAPSO buffer distribution coefficient, log D of the compound at pH 7.4 by shake-flask method

in vitro = settings: pampa, pH 6.5
Description: Apparent permeability of compound at pH 6.5 by PAMPA

C=CCN(C)CCCCCCOc1ccc(C(=O)c2ccc(Br)cc2)c(F)c1.O=C(O)/C=C/C(=O)O
Stability [1]: Stable | Stability [2]: Stable | pIC50 (A549): 4.95 | pIC50 (KB): 5.54 | pIC50 (LNCaP): < 4.52 | pIC50 [3]: 5.28 | pIC50 [4]: < 4.52 | pIC50 (OVCAR): < 4.52 | inhibition (LN-18 [5]): Active | inhibition (LN-229 [6]): Active | pIC50 [7]: 5.21 | Activity (LN-18 [8]): Dose-dependent effect | pIC50 [9]: 5.06 | Activity (LN-229 [10]): Dose-dependent effect | Activity (LN-18 [11]): Active | Activity [12]: Toxic | Activity (LN-229 [13]): Active | Activity (LN-229 [14]): inactive | Activity (LN-18 [15]): inactive | Activity (LN-229 [16]): Active | Activity (LN-18 [17]): Active | permeability [18]: 20% | pIC50 (Caco-2): 5.52 | pIC50 (HeLa): 5.54 | pIC50 (MCF7): 5.17 | pIC50 (cells): 5.42 | logD (physchem): 3.92 | Papp (in vitro): 0.12 ×10⁻⁶ cm/s
